Reference: PMC11788964, “Clinical Pharmacology and Approach to Dose Selection of Emestedastat, a Novel Tissue Cortisol Synthesis Inhibitor for the Treatment of Central Nervous System Disease” (Clinical Pharmacology in Drug Development, 2025)

What was measured:
[1] = test system: healthy older men; patients with type 2 diabetes mellitus; set-up: method as in PMID 15071189; conditions: cited from earlier work
AD population = test system: AD population; set-up: method as in PMID 24418055; conditions: 12‐week Phase 2 trial in AD; cited from earlier work
brain 11β‐HSD1 = conditions: aged mice and murine Tg2576 model of AD; cited from earlier work
[2] = test system: mice with age‐associated cognitive impairment; murine Tg2576 model of AD; conditions: aged mice and murine Tg2576 model of AD; cited from earlier work
[3] = Population pharmacokinetic (PPK) analysis of MAD, XanADu and XanaHES trials; type: in vivo, human
Experimental: PPK analysis was performed on data from 3 trials: the MAD trial in volunteers; the XanADu trial in patients with AD; and XanaHES in older, cognitively normal participants. In total, 138 participants (18 healthy volunteers, 90 patients with AD, and 30 healthy older participants) contributed a total of 1087 evaluable plasma concentration observations.
The analyses were performed using NONMEM Version 7.3.0 (ICON plc). PK parameter relationships were sought with the covariates body weight, age, sex, and healthy versus AD. The selected PPK model was a one‐compartment model with first‐order absorption and elimination. It was successfully fitted using Monte Carlo Importance Sampling Expectation Maximization estimation and included separate relative bioavailability terms for the Day 1 PK data from the XanADu and XanaHES trials. The M3 method was used to permit the inclusion of the below‐the‐limit quantification concentrations in the analysis. The model estimated between‐subject variation in all 4 parameters and used a full ω block to estimate the covariance between parameters. The model included a weight effect on the apparent volume of distribution.

[4] = test system: cognitively normal, older participants; experiment: XanaHES (ACW0003) computerized cognitive test battery (Cogstate); type: in vivo, human; conditions: 20 mg daily, over 12 weeks
Experimental: The next trial, XanaHES (ACW0003) was a double‐blind, placebo‐controlled, Phase 1b trial in cognitively normal, older participants (age range, 50‐75 years) at a dose of 20 mg daily for 12 weeks. The population of 42 participants comprised 30 receiving emestedastat and 12 receiving placebo. The objectives were to assess safety, PK, HPA PD, and cognition. The computerized cognitive test battery (CTB; Cogstate) assessed attention, working memory, and episodic memory.
(§1) In both XanaHES and XanaMIA‐DR, cognition was assessed using a computerized CTB (Cogstate). The CTB comprised tests indexing key domains of cognition including processing speed, attention, visual learning, working memory, psychomotor function, and executive function. In XanaHES, least squares mean differences between the emestedastat 20 mg treatment group and the placebo group were estimated and tested at a 2‐sided 0.05 significance level. No adjustments for α were made for multiple comparisons. In XanaMIA‐DR, standardized effect sizes, equivalent to a Z score, were calculated with a threshold for clinically meaningful effect set at 0.9, representing a 1‐sided 80% confidence interval (CI).
(§2) The individual tests from the Cogstate battery were combined into 2 composite scores indexing: • · “Attention Composite” of attention and working memory (Detection Test, Identification Test, One Back Test) • · “Memory Composite” of episodic memory and learning (One Card Learning Test, Continuous Paired Associate Learning Test, and Continuous Paired Associate Learning Test‐Delayed Recall).
(§3) To compute the Attention and Memory Composite scores, each of the component‐test scores were Z transformed, the directionality of scores was reversed so that higher scores indicate better performance, and the component Z scores were averaged.

[5] = test system: healthy older participants; experiment: XanaMIA‐DR (ACW0005) computerized cognitive test battery (Cogstate); type: in vivo, human
Experimental: XanaMIA‐DR (ACW0005) was a double‐blind placebo‐controlled Phase 1b trial in 107 healthy older participants (age range, 50‐80 years) at doses of 5 and 10 mg daily for 6 weeks. The principal objective of XanaMIA‐DR was to assess whether the improvements in cognition observed in XanaHES were also present at the lower doses of 5 and 10 mg daily.
as §1, §2, §3

[6] = Safety and tolerability in clinical trials; type: in vivo, human
Text: All trials were approved by a local ethics committee/institutional review board, and all participants gave written informed consent. Endocrinology data and a population PK (PPK) analysis are available from the following trials: • · A single‐ascending‐dose (SAD) trial in healthy volunteers (RD 656/25368)[25] • · A multiple‐ascending‐dose (MAD) trial in healthy volunteers, including a small subtrial measuring CSF concentrations (ACW0001)[25] • · A positron emission tomography (PET) trial in cognitively normal, older volunteers and patients with AD (ACW0004)[26] • · Two trials in cognitively normal, older volunteers examining safety and effects on cognition (Trials ACW0003, NCT03830762 and ACW0005; and NCT04983368) • · A PPK analysis from the healthy volunteer and patient trials • · HPA axis endocrinology data from the volunteer and patient trials • · A trial of efficacy and safety in patients with AD (ACW0002; NCT02727699)[27]
Initially, the SAD and MAD trials studied doses up to 35 mg twice daily and assessed PK and HPA PD.

[7] = set-up: method as in PMID 28012176; conditions: cited from earlier work
11β‐HSD1 = test system: 11β‐HSD1; set-up: method as in PMID 38250767; conditions: 5 mg; cited from earlier work
peripheral 11β‐HSD1 = test system: peripheral 11β‐HSD1; set-up: method as in PMID 28012176; conditions: all doses in the MAD trial (10 to 35 mg twice daily); cited from earlier work
patients with AD = test system: patients with AD; set-up: method as in PMID 34679364; conditions: 10 mg daily 12 weeks, elevated plasma pTau181; cited from earlier work
[8] = SAD and MAD trials of up to 35 mg twice daily; cited from earlier work

## CC1(C)[C@@H](OC(=O)CCC(=O)O)CC[C@]2(C)[C@H]3C(=O)C=C4[C@@H]5C[C@@](C)(C(=O)O)CC[C@]5(C)CC[C@@]4(C)[C@]3(C)CC[C@@H]12 [carbenoxolone]
[1]; 10 healthy older (55‐75 years) men, 4 weeks
  verbal fluency test (executive function): improved
[1]; 12 patients with type 2 diabetes mellitus
  verbal memory in the Rey Auditory Verbal Learning Test: improved verbal memory

## CC(C)(C(=O)NC1C2CC3CC1CC(C(N)=O)(C3)C2)N1CCN(c2ccc(C(F)(F)F)cn2)CC1 (stereo not drawn) [ABT‐384]
AD population
  therapeutic outcome in AD: therapeutic failure

## O=C(c1csc(-c2cn[nH]c2)c1)N1CCC(F)(c2ccccc2Cl)CC1 [UE2316]
Brain 11β‐HSD1
  inhibition of 11β‐HSD1 in the brain: approximately 30%
[2]
  amyloid‐β in the cortex: reduction in amyloid‐β in the cortex
  memory: improved memory

## O=C(c1csc(-c2cn[nH]c2)c1)N1C2CCC1CC(O)(c1ncccn1)C2 (stereo not drawn) [emestedastat, (5‐(1H‐Pyrazol‐4‐yl)thiophen‐3‐yl)(3‐hydroxy‐3‐(pyrimidin‐2‐yl)‐8 azabicyclo[3.2.1]octan‐8‐yl) methanone]
[3]; dose range 10‐70 mg
  linearity of PK: linear
[3]; final PPK model
  ALAG (absorption lag time), estimate: 0.900 h
  ka (absorption rate), estimate: 1.74 h⁻¹
[3]; final PPK model, 138 participants
  CL/F (apparent clearance), estimate: 4.76 L/h
[3]; final PPK model, weight effect on V/F
  WT on V/F (covariate), estimate: 1.00
[3]; human, plasma, oral, final PPK model, read-out: V/F (apparent volume of distribution), estimate
  Vd/F: 64.3 L
[3]; human, plasma, oral, from kel = CL/V and t1/2 = ln(2)/Kel, read-out: mean elimination half‐life (95% CI)
  half-life: 9.36 h
[4]
  One Card Learning Test, Continuous Paired Associate Learning Test and Delayed Recall, vs placebo: no difference between groups
  least squares mean difference on the One Back Test compared to placebo: −0.06 U
  least squares mean difference on the detection test compared to placebo: −0.04 U
  least squares mean difference on the identification test compared to placebo: −0.03 U
[4]; vs placebo
  Cohen's d, One Back Test: 0.98
  Cohen's d, detection test: 0.49
  Cohen's d, identification test: 0.65
[5]; 5 and 10 mg daily, 6 weeks
  treatment effect in the tests making up the Memory Composite: no evidence of any treatment effect
[5]; 5‐mg treatment group, 6 weeks
  improvement on the identification test (visual attention) compared to placebo: −0.018 U
[5]; 5‐mg treatment group, vs placebo
  Cohen's d, identification test: 0.32
[6]; all trials
  maximum tolerated dose in humans: has not been established
[6]; any trial
  serious adverse events attributed to drug: no serious adverse events
[7]; 4 participants, single time point
  CSF : free plasma ratio: 0.33
[7]; SAD and MAD trials
  urinary excretion of unchanged drug: < 5%
11β‐HSD1
  occupancy in the cerebellum relative to cortex: lower (by about half)
Peripheral 11β‐HSD1
  inhibition of peripheral 11β‐HSD1 (suppression of urinary tetrahydrocortisol/tetrahydrocortisone ratios): Near complete inhibition
Patients with AD
  Cohen's d, AD COMposite Scores: < 0.2
  Cohen's d, ADAS‐Cog14: < 0.2
  Cohen's d, Clinical Dementia Ratio—Sum of Boxes compared to placebo: 0.41
  Cohen's d, Mini‐Mental State Examination: < 0.2
  Cohen's d, Neuropsychological Test Battery‐Executive domain: 0.26
[8]
  maximum tolerated dose: had not been established
  tolerability: well tolerated
